{
  "source": "patent US20140271465A1",
  "about": "“MATRIX METALLOPROTEASE (MMP) TARGETED AGENTS FOR IMAGING AND THERAPY” (Mallinckrodt LLC, priority 2013, published 2014)",
  "origin": "cited, not measured here",
  "key": {"rhMMP14": {"biological_target": "T1, rhMMP14 (Homo sapiens, UniProt P50281)", "T1 construct": "purchased R&D Systems 918-MP", "details": "control compound, vendor description"}, "rhMMP2": {"biological_target": "T2, rhMMP2 (Homo sapiens, UniProt P08253)", "T2 construct": "purchased R&D Systems 902-MP", "T2 sequence (P08253 110-660)": "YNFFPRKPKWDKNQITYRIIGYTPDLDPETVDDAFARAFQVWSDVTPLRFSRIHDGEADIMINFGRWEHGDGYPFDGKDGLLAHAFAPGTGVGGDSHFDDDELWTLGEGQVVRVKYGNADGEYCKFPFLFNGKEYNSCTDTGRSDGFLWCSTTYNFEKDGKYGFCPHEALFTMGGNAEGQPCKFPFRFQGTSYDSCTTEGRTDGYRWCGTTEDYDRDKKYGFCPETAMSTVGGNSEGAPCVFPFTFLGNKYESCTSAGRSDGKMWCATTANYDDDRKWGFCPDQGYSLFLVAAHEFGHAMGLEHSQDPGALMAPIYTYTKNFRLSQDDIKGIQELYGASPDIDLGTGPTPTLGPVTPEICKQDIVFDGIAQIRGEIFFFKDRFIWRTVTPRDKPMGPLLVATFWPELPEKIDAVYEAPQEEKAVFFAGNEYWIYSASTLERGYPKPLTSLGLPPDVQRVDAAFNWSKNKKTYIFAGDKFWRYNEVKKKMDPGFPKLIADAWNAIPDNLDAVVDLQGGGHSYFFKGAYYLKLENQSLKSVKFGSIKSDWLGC", "details": "control compound, vendor description"}},
  "data": [
    {"molecule": "CNC(=O)[C@H](Cc1ccccc1)NC(=O)[C@H](CC(C)C)[C@H](CSc1cccs1)C(=O)NO", "note": "[Batimastat]", "values": [
      {"measurement": "Inhibition of MMP-14 (control description)", "setting": "rhMMP14", "value": "low nM levels"},
      {"measurement": "Inhibition of MMP-2 (control description)", "setting": "rhMMP2", "value": "low nM levels"}
    ]},
    {"molecule": "CC(C)ON(CC(=O)NO)S(=O)(=O)c1ccc(-c2ccccc2)cc1", "note": "[ARP100]", "values": [
      {"measurement": "Inhibition of MMP-14 (control description)", "setting": "rhMMP14", "value": "poor inhibitor for MMP-14"},
      {"measurement": "Inhibition of MMP-2 (control description)", "setting": "rhMMP2", "value": "selective MMP-2 inhibitor"}
    ]}
  ]
}
